Structures are written as SMILES. A value given as a limit tells only on which side of the number the result lay.

We go through 37 molecules from patent US20230114241A1, “METHODS OF TREATING EPILEPSY USING THE SAME” (Trevena, Inc., priority 2019, published 2023).

Chain of human sphingosine-1-phosphate receptor 1 (S1P1) (P21453 whole entry): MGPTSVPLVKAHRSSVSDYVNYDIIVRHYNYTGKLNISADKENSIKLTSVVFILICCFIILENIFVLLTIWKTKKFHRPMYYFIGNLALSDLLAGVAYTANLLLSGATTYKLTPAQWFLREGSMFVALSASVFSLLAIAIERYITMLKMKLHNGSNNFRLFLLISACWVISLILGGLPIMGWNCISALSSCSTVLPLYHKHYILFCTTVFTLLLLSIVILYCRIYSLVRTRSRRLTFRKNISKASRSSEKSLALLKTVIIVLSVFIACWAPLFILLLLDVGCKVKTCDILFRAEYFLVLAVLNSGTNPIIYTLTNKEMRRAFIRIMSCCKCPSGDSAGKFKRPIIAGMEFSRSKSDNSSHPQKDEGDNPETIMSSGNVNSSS

The experiment concerns the target human sphingosine-1-phosphate receptor 1 (S1P1) (Homo sapiens, UniProt P21453). Kind of experiment: Inhibition of cAMP production (HTRF cAMP HiRange), S1P1 CHO-K1 cells. The conditions noted are these: inhibition of cAMP production, S1P1; read-out: hS1P1 CAMP pEC50 (converted). The format is cell-based. Put shortly:
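Intracellular cAMP changes read by TR-FRET (HTRF HiRange, 1 h room temperature) after 30 min compound exposure at 37 °C. Cells: overnight-plated CHO-K1 stably expressing tagged human S1P1 with EA-β-arrestin2. Responses normalized to fingolimod.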
As to `CC(C)n1nnc2cc(-c3nc4ccncc4o3)ccc21` [Compound 503, 2-(1-isopropyl-1H-benzo[d][1,2,3]triazol-5-yl)oxazolo[5,4-c]pyridine], the EC50 is greater than 316 nM.

Take `CC(C)Cn1nnc2cc(-c3nc4ccncc4o3)ccc21` [Compound 504, 2-(1-isobutyl-1H-benzo[d][1,2,3]triazol-5-yl)oxazolo[5,4-c]pyridine]: the EC50 was greater than 316 nM.

Take `CC(C)Oc1ccc(-c2ccc(-c3ccc4c(c3)nnn4C(C)C)cc2)cc1C#N` [Compound 506, 4-isopropoxy-4′-(1-isopropyl-1H-benzo[d][1,2,3]triazol-5-yl)-[1,1′-biphenyl]-3-carbonitrile]: the EC50 is less than 316 nM. Take `CC(C)Nc1ccc(-c2ccc(-c3ccc4c(c3)nnn4C(C)C)cc2)cc1C#N` [Compound 507, 4′-(1-isopropyl-1H-benzo[d][1,2,3]triazol-5-yl)-4-(isopropylamino)-[1,1′-biphenyl]-3-carbonitrile]: the EC50 was less than 316 nM. Turning to `C=CCNc1ccc(-c2ccc(-c3ccc4c(c3)nnn4C(C)C)cc2)cc1C#N` [Compound 508, 4-(allylamino)-4′-(1-isopropyl-1H-benzo[d][1,2,3]triazol-5-yl)-[1,1′-biphenyl]-3-carbonitrile], the EC50 is greater than 316 nM. As for `CC(C)n1nnc2cc(-c3nc(-c4ccc5nc[nH]c5c4)no3)ccc21` [Compound 511, 5-[3-(1H-1,3-benzodiazol-6-yl)-1,2,4-oxadiazol-5-yl]-1-(propan-2-yl)-1H-1,2,3-benzotriazole], the EC50 is less than 316 nM. Consider `COc1cccc2nc(-c3ccc4c(c3)nnn4C(C)C)oc12` [Compound 515, 2-(1-isopropyl-1H-benzo[d][1,2,3]triazol-5-yl)-7-methoxy-benzo[d]oxazole], for which the EC50 was less than 316 nM. Regarding `Cc1ccccc1-c1c[nH]c(-c2ccc3c(c2)nnn3C(C)C)c1` [Compound 516, 5-[4-(2-methylphenyl)-1H-pyrrol-2-yl]-1-(propan-2-yl)-1H-1,2,3-benzotriazole], the EC50 is greater than 316 nM. For `Cc1ccccc1-c1cc(-c2ccc3c(c2)nnn3C(C)C)n(C)c1` [Compound 517, 5-[1-methyl-4-(2-methylphenyl)-1H-pyrrol-2-yl]-1-(propan-2-yl)-1H-1,2,3-benzotriazole], the EC50 is greater than 316 nM. Turning to `Cc1cn(C)nc1-c1noc(-c2ccc3c(c2)nnn3C(C)C)n1` [Compound 519, 5-[3-(1,4-dimethyl-1H-pyrazol-3-yl)-1,2,4-oxadiazol-5-yl]-1-(propan-2-yl)-1H-1,2,3-benzotriazole], the EC50 is less than 316 nM. In the case of `COc1cc(NC(C)=O)ccc1-c1noc(-c2ccc3c(c2)nnn3C(C)C)n1` [Compound 532, N-(3-methoxy-4-{5-[1-(propan-2-yl)-1H-1,2,3-benzotriazol-5-yl]-1,2,4-oxadiazol-3-yl}phenyl)acetamide], the EC50 was less than 316 nM. As to `COCCn1cc(-c2ccccc2C)cc1-c1ccc2c(c1)nnn2C(C)C` [Compound 534, 5-[1-(2-methoxyethyl)-4-(2-methylphenyl)-1H-pyrrol-2-yl]-1-(propan-2-yl)-1H-1,2,3-benzotriazole], the EC50 was greater than 316 nM. Regarding `CC(C)n1nnc2cc(-c3c[nH]c(-c4ccccc4)c3)ccc21` [Compound 543, 5-(5-phenyl-1H-pyrrol-3-yl)-1-(propan-2-yl)-1H-1,2,3-benzotriazole], the EC50 was less than 316 nM. In the case of `CCC1(CC)CC(=O)c2cc(-c3nc(-c4cncc(NS(C)(=O)=O)c4)no3)ccc2O1` [Compound 545, N-(5-(5-(2,2-diethyl-4-oxochroman-6-yl)-1,2,4-oxadiazol-3-yl)pyridin-3-yl)methanesulfonamide], the EC50 was less than 316 nM. With `CCC1(CC)CC(=O)c2cc(-c3nc(-c4ccsc4)no3)ccc2N1` [Compound 554, 2,2-diethyl-6-(3-(thiophen-3-yl)-1,2,4-oxadiazol-5-yl)-2,3-dihydroquinolin-4(1H)-one], the EC50 is less than 316 nM. Then `CC(C)n1nnc2cc(-c3nc(-c4nccn4C)no3)ccc21` [Compound 569, 5-[3-(1-methyl-1H-imidazol-2-yl)-1,2,4-oxadiazol-5-yl]-1-(propan-2-y1)-1H-1,2,3-benzotriazole], with greater than 316 nM.

Turning to `CC(C)(O)Cn1nnc2cc(-c3nc(-c4cocn4)no3)ccc21` [Compound 570, 2-methyl-1-{5-[3-(1,3-oxazol-4-yl)-1,2,4-oxadiazol-5-yl]-1H-1,2,3-benzotriazol-1-yl}propan-2-ol], the EC50 is greater than 316 nM. As to `COc1ccccc1-c1nc(-c2ccc3c(c2)nnn3C(C)C)co1` [Compound 575, 5-[2-(2-methoxy-phenyl)-1,3-oxazol-4-yl]-1-(propan-2-yl)-1H-1,2,3-benzotriazole], the EC50 was less than 316 nM.

As to `CC(C)n1nnc2cc(-c3noc(-c4ccccc4N)n3)ccc21` [Compound 576, 2-{3-[1-(propan-2-yl)-1H-1,2,3-benzotriazol-5-yl]-1,2,4-oxadiazol-5-yl}aniline], the EC50 is less than 316 nM.

For `CC(C)(O)Cn1nnc2cc(-c3nc(-c4cccc5cc[nH]c45)no3)ccc21` [Compound 577, 1-{5-[3-(1H-indol-7-yl)-1,2,4-oxadiazol-5-yl]-1H-1,2,3-benzotriazol-1-yl}-2-methylpropan-2-ol], the EC50 is greater than 316 nM.

As to `CCC1(CC)CC(=O)c2cc(-c3nc(-c4ccc(NC(C)=O)cc4OC(F)(F)F)no3)ccc2O1` [Compound 584, N-{4-[5-(2,2-diethyl-4-oxo-3,4-dihydro-2H-1-benzopyran-6-yl)-1,2,4-oxadiazol-3-yl]-3-(trifluoromethoxy)phenyl}acetamide], the EC50 was less than 316 nM. Turning to `CNc1ccccc1-c1coc(-c2ccc3c(c2)nnn3C(C)C)n1` [Compound 587, N-methyl-2-{2-[1-(propan-2-yl)-1H-1,2,3-benzotriazol-5-yl]-1,3-oxazol-4-yl}aniline], the EC50 is greater than 316 nM. Then `N#Cc1cc(-c2nnc(-c3ccc4[nH]cnc4c3)o2)ccc1NC1CC1` [Compound 598, 5-[5-(1H-1,3-benzo-diazol-5-yl)-1,3,4-oxadiazol-2-yl]-2-(cyclopropyl-amino)benzonitrile], with less than 316 nM.

With `CNc1ccccc1-c1nc(-c2ccc3c(c2)nnn3C(C)C)no1` [Compound 599, N-methyl-2-{3-[1-(propan-2-yl)-1H-l,2,3-benzotriazol-5-yl]-1,2,4-oxadiazol-5-yl}aniline], the EC50 was less than 316 nM. Regarding `N#Cc1cc(-c2nnc(-c3ccc4[nH]cnc4c3)o2)ccc1NC(CF)CF` [Compound 600, 5-[5-(1H-1,3-benzo-diazol-5-yl)-1,3,4-oxadiazol-2-yl]-2-[(1,3-difluoropropan-2-yl)amino]benzonitrile], the EC50 was less than 316 nM.

For the molecule `COc1ccncc1-c1nc(-c2ccc3c(c2)nnn3C(C)C)no1` [Compound 605, 3-(1-isopropyl-1H-benzo[d][1,2,3]triazol-5-yl)-5-(4-methoxy-pyridin-3-yl)-1,2,4-oxadiazole], the EC50 was less than 316 nM. Then `COc1cnccc1-c1nc(-c2ccc3c(c2)nnn3C(C)C)no1` [Compound 606, 3-(1-isopropyl-1H-benzo[d][1,2,3]triazol-5-yl)-5-(3-methoxy-pyridin-4-yl)-1,2,4-oxadiazole], with less than 316 nM. In the case of `COc1ncccc1-c1nc(-c2ccc3c(c2)nnn3C(C)C)no1` [Compound 607, 3-(1-isopropyl-1H-benzo[d][1,2,3]triazol-5-yl)-5-(2-methoxy-pyridin-3-yl)-1,2,4-oxadiazole], the EC50 is less than 316 nM. Then `Cc1ccsc1-c1nc(-c2ccc3c(c2)nnn3C(C)(C)CO)no1` [Compound 611, 2-methyl-2-(5-(5-(3-methylthiophen-2-yl)-1,2,4-oxadiazol-3-yl)-1H-benzo[d] [1,2,3]triazol-1-yl)propan-1-ol], with less than 316 nM; and `COc1cccnc1-c1nc(-c2ccc3c(c2)nnn3C(C)C)no1` [Compound 612, 3-(1-isopropyl-1H-benzo[d][1,2,3]triazol-5-yl)-5-(3-methoxy-pyridin-2-yl)-1,2,4-oxadiazole], with less than 316 nM; and `COc1ccccc1-c1nc(-c2ccc3c(c2)nnn3C(C)(C)CO)no1` [Compound 623, 2-(5-(5-(2-methoxy-phenyl)-1,2,4-oxadiazol-3-yl)-1H-benzo[d][1,2,3]triazol-1-yl)-2-methyl-propan-1-ol], with greater than 316 nM.

Turning to `CCc1ccccc1-c1nc(-c2ccc3c(c2)nnn3C(C)(C)CO)no1` [Compound 624, 2-(5-(5-(2-ethyl-phenyl)-1,2,4-oxadiazol-3-yl)-1H-benzo[d][1,2,3]triazol-1-yl)-2-methyl-propan-1-ol], the EC50 is greater than 316 nM. Take `Cc1ccncc1-c1nc(-c2ccc3c(c2)nnn3C(C)(C)CO)no1` [Compound 625, 2-methyl-2-(5-(5-(4-methylpyridin-3-yl)-1,2,4-oxadiazol-3-yl)-1H-benzo[d] [1,2,3]triazol-1-yl)propan-1-ol]: the EC50 was greater than 316 nM. Take `COc1cccnc1-c1noc(-c2ccc3c(c2)nnn3C(C)C)n1` [Compound 627, 5-(1-isopropyl-1H-benzo[d][1,2,3]triazol-5-yl)-3-(3-methoxypyridin-2-yl)-1,2,4-oxadiazole]: the EC50 was greater than 316 nM. As to `Cc1nccnc1-c1nc(-c2ccc3c(c2)nnn3C(C)(C)CO)no1` [Compound 641, 2-methyl-2-(5-(5-(3-methyl-pyrazin-2-yl)-1,2,4-oxadiazol-3-yl)-1H-benzo[d][1,2,3]triazol-1-yl)propan-1-ol], the EC50 was greater than 316 nM. In the case of `CC(C)(CO)n1nnc2cc(-c3noc(-c4cccnc4F)n3)ccc21` [Compound 643, 2-(5-(5-(2-fluoro-pyridin-3-yl)-1,2,4-oxadiazol-3-yl)-1H-benzo[d][1,2,3]triazol-1-yl)-2-methylpropan-1-ol], the EC50 was greater than 316 nM. For `CC(C)(CO)n1nnc2cc(-c3noc(-c4cnccc4C(F)(F)F)n3)ccc21` [Compound 644, 2-methyl-2-(5-(5-(4-(trifluoro-methyl)pyridin-3-yl)-1,2,4-oxadiazol-3-yl)-1H-benzo[d][1,2,3]triazol-1-yl)propan-1-ol], the EC50 was greater than 316 nM.
